The source of these data is patent publication US7501421B2, “Benzoxazole and benzothiazole derivatives as 5-hydroxytryptamine-6 ligands” (Wyeth, priority 2006, dated 2009).

Where a name gives a salt, the structure may show the parent alone.

The target of this assay is human cloned 5-HT6 receptors (Homo sapiens, UniProt P50406). Nature of the assay: Evaluation of 5-HT6 binding affinity ([3H]-LSD radioligand binding).
Chain of human cloned 5-HT6 receptors (P50406 whole entry): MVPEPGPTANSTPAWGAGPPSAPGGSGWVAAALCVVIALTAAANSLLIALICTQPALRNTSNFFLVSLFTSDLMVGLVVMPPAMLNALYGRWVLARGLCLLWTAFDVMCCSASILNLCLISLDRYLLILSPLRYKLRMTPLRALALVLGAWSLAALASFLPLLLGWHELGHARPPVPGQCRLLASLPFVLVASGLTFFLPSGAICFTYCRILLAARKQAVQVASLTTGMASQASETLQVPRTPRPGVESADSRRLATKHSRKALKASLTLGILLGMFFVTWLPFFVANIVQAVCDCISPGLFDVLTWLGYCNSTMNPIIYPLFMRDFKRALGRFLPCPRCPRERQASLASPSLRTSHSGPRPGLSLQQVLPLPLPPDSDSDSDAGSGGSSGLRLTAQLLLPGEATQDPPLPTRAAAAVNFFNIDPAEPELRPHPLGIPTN
As to `O=S(=O)(c1ccccc1)c1cccc2oc(N3CCNCC3)nc12` [Example 13], the Ki was 67 nM. In the case of `CN1CCN(c2nc3c(S(=O)(=O)c4cccc5ccccc45)cccc3o2)CC1` [Example 22, 2-(4-Methylpiperazin-1-yl)-4-(1-naphthylsulfonyl)benzoxazole Dihydrochloride], the Ki was found to be 10 nM. Against the preceding compound, the Ki is about 6.7-fold lower. Consider `O=S(=O)(c1cccc2ccccc12)c1cccc2oc(N3CCN(C4CCCC4)CC3)nc12` [Example 30], for which affinity was put at a Ki of 78 nM. This Ki lies about 7.8-fold higher than the previous one. For `O=S(=O)(c1cccc2ccccc12)c1cccc2oc(N3CCN(C4CCCCC4)CC3)nc12` [Example 31] the value was 91 nM. Take `O=S(=O)(c1cccc2ccccc12)c1cccc2nc(N3CCNCC3)oc12` [Example 34, 7-(1-naphthylsulfonyl)-2-piperazin-1-ylbenzoxazole Dihydrochloride]: affinity was put at a Ki of 7 nM.

Compound `O=S(=O)(c1ccc2nc(N3CCNCC3)sc2c1)c1cccc2ccccc12` [Example 41, 6-(1-Naphthylsulfonyl)-2-piperazin-1-ylbenzothiazole Dihydrochloride] came in with a Ki of 500 nM.

One may read the Ki as a dissociation constant, usually derived from enzyme kinetics or from competition with a known ligand.
